Measured values as given in the supplement of paper PMC10307832.

Columns and labels:
Assay in all cases: relative viability (nuclei count vs DMSO), 5 days (fraction); higher = more cells survive
[1] = compound: C=C(c1ccc(C(=O)O)cc1)c1cc2c(cc1C)C(C)(C)CCC2(C)C [Bexarotene] + Nc1nc2[nH]cc(CCc3ccc(C(=O)N[C@@H](CCC(=O)O)C(=O)O)cc3)c2c(=O)[nH]1 [Pemetrexed] (partner 0.2 µM)
Procedure, shortened: (§1)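 Medians of duplicate plates are given as relative viability. That measure is the nuclei count in treated wells divided by the count in vehicle wells. Counts were taken on 4× images of lung cancer cell lines in 1536-well plates, 5 days after pin-tool dosing the day after seeding with one drug alone or a fixed anchor-drug dose plus five library-drug doses (not always all listed) in √10 steps.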

[2] = compound: C=C(c1ccc(C(=O)O)cc1)c1cc2c(cc1C)C(C)(C)CCC2(C)C [Bexarotene] + O=C(c1cc(Cc2n[nH]c(=O)c3ccccc23)ccc1F)N1CCN(C(=O)C2CC2)CC1 [Olaparib] (partner 8 µM)
Procedure, shortened: as §1

[3] = compound: C=C(c1ccc(C(=O)O)cc1)c1cc2c(cc1C)C(C)(C)CCC2(C)C [Bexarotene] + Cc1nc(NC(=O)N2CCC[C@H]2C(N)=O)sc1-c1ccnc(C(C)(C)C(F)(F)F)c1 [Alpelisib] (partner 2 µM)
Procedure, shortened: as §1

[4] = compound: C=C(c1ccc(C(=O)O)cc1)c1cc2c(cc1C)C(C)(C)CCC2(C)C [Bexarotene] + CC(=O)c1c(C)c2cnc(Nc3ccc(N4CCNCC4)cn3)nc2n(C2CCCC2)c1=O [Palbociclib] (partner 0.5 µM)
Procedure, shortened: as §1

Cell Line	relative viability ([1]; first compound 0.08 µM)	relative viability ([1]; first compound 0.253 µM)	relative viability ([1]; first compound 0.8 µM)	relative viability ([1]; first compound 2.53 µM)	relative viability ([1]; first compound 8 µM)	relative viability ([2]; first compound 0.08 µM)	relative viability ([2]; first compound 0.253 µM)	relative viability ([2]; first compound 0.8 µM)	relative viability ([2]; first compound 2.53 µM)	relative viability ([2]; first compound 8 µM)	relative viability ([3]; first compound 0.08 µM)	relative viability ([3]; first compound 0.253 µM)	relative viability ([3]; first compound 0.8 µM)	relative viability ([3]; first compound 2.53 µM)	relative viability ([3]; first compound 8 µM)	relative viability ([4]; first compound 0.08 µM)	relative viability ([4]; first compound 0.253 µM)	relative viability ([4]; first compound 0.8 µM)	relative viability ([4]; first compound 2.53 µM)	relative viability ([4]; first compound 8 µM)
201T	0.385	0.295	0.322	0.355	0.347	0.837	0.823	0.777	0.919	0.709	1.02	0.991	0.941	0.916	0.909	0.345	0.33	0.315	0.361	0.312
A549	–	–	–	–	–	0.245	0.388	0.35	0.291	0.3	0.992	0.826	0.836	0.671	0.686	–	–	–	–	–
A-427	0.938	0.872	0.794	0.773	0.904	0.716	0.781	0.654	0.743	0.728	1.08	1.02	0.89	0.89	0.926	0.48	0.47	0.467	0.444	0.487
ABC-1	–	–	–	–	–	0.827	0.839	0.478	–	0.631	0.714	0.892	0.949	0.953	0.87	0.617	0.676	0.662	–	0.655
BEN	0.883	0.629	0.784	0.637	0.725	1.05	0.942	1	0.853	1.06	1.03	0.962	0.898	0.836	0.893	0.444	0.467	0.442	0.456	0.502
CAL-12T	1.15	1.19	1.21	1.13	1.06	0.728	0.64	0.658	0.648	0.67	1.29	1.3	1.33	1.17	0.94	0.442	0.465	0.342	0.417	0.441
COR-L23	0.198	0.206	0.198	0.214	0.202	0.344	0.365	0.323	0.373	0.301	0.872	0.768	0.555	0.685	0.757	0.283	0.274	0.279	0.257	0.274
COR-L 105	0.983	1.16	1.14	1.17	1.14	0.698	0.743	0.898	0.784	0.913	0.928	0.977	1.04	1.14	0.916	0.382	0.368	0.409	0.421	0.392
Calu-6	–	–	–	–	–	0.638	0.563	0.494	0.606	0.568	1.12	0.917	0.934	0.958	1.05	–	–	–	–	–
ChaGo-K-1	0.274	0.249	0.251	0.253	0.275	0.411	0.413	0.408	0.395	0.42	–	–	–	–	–	1.09	0.983	0.99	0.967	1.01
EKVX	0.423	0.54	0.355	0.43	0.362	0.838	0.993	0.947	0.946	0.948	0.889	0.855	0.781	0.849	0.76	0.37	0.366	0.384	0.438	0.362
EMC-BAC-2	0.44	0.441	0.394	–	0.419	0.522	0.514	0.504	–	0.515	0.748	0.735	0.705	0.73	0.719	0.538	0.529	0.508	–	0.502
EPLC-272H	0.27	0.346	0.218	0.395	0.325	0.824	0.773	0.641	0.758	0.845	0.9	0.97	0.884	0.901	0.911	0.313	0.358	0.312	0.314	0.354
H3255	0.585	0.577	0.551	0.554	0.558	0.603	0.692	0.659	0.642	0.654	0.655	0.789	0.715	0.862	0.72	0.333	0.335	0.316	0.344	0.346
HARA	0.292	0.31	0.217	0.248	0.244	0.752	0.838	0.925	0.731	0.715	0.705	0.714	0.456	0.52	0.597	0.269	0.239	0.243	0.294	0.277
HCC-15	0.218	0.229	0.214	0.184	0.207	0.666	0.703	0.721	0.654	0.689	0.91	0.849	0.845	0.816	0.788	0.779	0.925	0.753	0.794	0.726
HCC-44	0.694	0.738	0.658	0.741	0.65	1.07	1.11	1.05	1.03	1.05	0.894	0.855	0.741	0.735	0.722	1	1.03	0.836	0.93	0.946
HCC-78	0.903	0.636	0.821	0.919	0.89	0.756	0.984	0.769	0.883	0.835	0.315	0.268	0.28	0.25	0.259	0.518	0.416	0.403	0.473	0.509
